Test results as given in patent US20040204340A1, “Polyprolyl inhibitors of cyclophilin” (Guilford Pharmaceuticals, Inc., priority 2003, published 2004).

System: cultured chick sensory neurons from dorsal root ganglia
Test: Chick dorsal root ganglion cultures and neurite outgrowth
Assay type: cell-based
Conditions: 1 mM, 48 h after treatment (FIGS. 4, 5)
Description: Dorsal root ganglia were dissected from chick embryos of ten day gestation. Whole ganglion explants were cultured on thin layer Matrigel-coated 12 well plates with Liebovitz L15 plus high glucose media supplemented with 2 mM glutamine and […], and also containing 10 μM cytosine 9-D arabinofuranoside (Ara C) at 37° C. in an environment containing 5% CO2. Twenty-four hours later, the DRGs were treated with various concentrations of nerve growth factor, immunophilin ligands or combinations of NFG plus drugs. Forty-eight hours after drug treatment, the ganglia were visualized under phase contrast or Hoffman Modulation contrast with a Zeiss Axiovert inverted microscope. Photomicrographs of the explants were made, and neurite outgrowth was quantitated. Neurites longer than the DRG diameter were counted as positive, with total number of neurites quantitated per each experimental condition. Three to four DRGs are cultured per well, and each treatment was performed in duplicate.

Substance	Promotion of neurite outgrowth (neurotrophic effects)
Ac-Pro-Ala-Pro-Ala-NH2 (Ac-PAPA-NH2)	potent neurotrophic effects
Ac-Pro-Gly-Pro-Phe-NH2 (Ac-PGPF-NH2)	powerful neurotrophic effects
